Laboratory results reported in US11453642B2, “Oxygenated amino- or ammonium-containing sulfonic acid, phosphonic acid and carboxylic acid derivatives and their medical use” (GRI BIO, INC., priority 2011, dated 2022).

Key:
RBL-2H3 cells = assay: Maximum tolerated concentration (cytotoxicity by lactate dehydrogenase release); type: cell-based, Rat; conditions: for MTC (maximum tolerated concentration): highest concentration not causing cytotoxicity (LDH release), RBL-2H3 cells; for SI (safety index): ratio between MTC and IC50
Excerpt: The safety index (SI) of a test compound is the ratio between the maximum tolerated concentration and the IC50 and is used as a measure of the relative safety of the test compound.

[1] = test system: Akt phosphorylation on Ser473; assay: Inhibition of activation of Akt kinase (phospho-Akt Ser473 assay in RBL-2H3 cells); type: cell-based, Rat; conditions: IgE and antigen 15 min, normalized to total Akt
Excerpt: The mast cell degranulation assay using the RBL-2H3 cell line (see example 6) was also used to determine the status of the PI3K/Akt axis. Activation of PI3K leads to production of PIP3 on the cytosolic side of the lipid bilayer. Akt is recruited to the PIP3 domain and subsequently activated by phosphorylation on residues Ser473 and Thr308. (Franke et al., Cell 81:727-736, (1995)). Once recruited to the membrane, it is phosphorylated and activated by other kinases (Hemmings, Science 275:628-630 (1997); Hemmings, Science 276:534 (1997); Downward. Science 279:673-674 (1998); Alessi et al., EMBO J. 15:6541-6551 (1996)). Western blotting of the phosphorylated Ser473 residue on Akt (phospho-Akt Ser473) is widely used to assess the level of activation of the PI3K/Akt axis.
All buffers and solutions used for the phosphor-Akt Ser473 assay were from Meso Scale Discovery. Tris Lysis Buffer consisted of 150 mM NaCl, 20 mM Tris, pH 7.5, 1 mM EDTA, 1 mM EGTA and 1% Triton-X-100. Complete Tris Lysis Buffer was prepared prior to use by addition of protease inhibitor, phosphatase inhibitors and PMSF. The 10× Tris Wash Buffer consisted of 500 mM Tris, pH 7.5, 1.5 M NaCl and 0.2% Tween-20. Blocker A was made up of bovine serum albumin in Tris Wash Buffer, Read Buffer T was used according to manufacturer's instructions. The Whole Cell Lysate Kits used were phospho-Akt Ser473 (K111000, Lot K0011749) and total ERK1/2 (K11107D, Lot K0011698) as a loading control.
Protein assay: protein concentration was determined using the BCA (bicinchoninic acid) Protein Assay kit according to the manufacturer's instructions. Briefly, duplicate 10 μl samples of bovine serum albumin (BSA) standards, blank and lysates were incubated in a 96-well plate with 0.2 ml working reagent for 30 min at 37° C. Plates were cooled to room temperature for 5 min and absorbance at 562 nm was measured in a multi-mode plate reader. Protein concentrations were calculated using FlexStation 3 software (SoftMax Pro version 5.3), Protein concentration of lysates was determined from a standard curve (BSA) using a linear curve fit.
Phosphoprotein assay: protein phosphorylation was determined using the MULTI-SPOT® Assay System (Meso Scale Discovery), providing simultaneous detection of phosphorylated and total proteins. Briefly, capture antibodies against phosphorylated and total protein are patterned on distinct spots in the same well of 96-well plates. Sandwich immunoassay and electrochemiluminescence detection technology are combined to measure intensity of the emitted light from phosphorylated and total protein spots. Analysis of phosphor-Akt Ser473 was performed according to the manufacturer's instructions. The optimal amount of protein was determined at 5 μg lysate per well for ERK1/2 and 10 μg/well for phospho-Akt Ser473, Plates were blocked with 25 μl/well Blocker A for 1 h at room temperature with gentle agitation. During this time, the lysates were thawed and diluted to the desired protein concentration in complete Tris Lysis Buffer. Plates were washed four times in Tris Wash Buffer and 25 μl lysate per well added. Plates were incubated for 1-3 h at room temperature with agitation according to the manufacturer's recommendations. Plates were washed four times with Tris Wash Buffer, followed by addition of 25 μl/well of the respective detection antibody and incubation for 1 h at room temperature, with agitation. After a final four washes with Tris Wash Buffer 150 μl/well, Read Buffer T was added and plates read on a SECTOR Imager 6000 plate reader.
The mean background signal from each plate was subtracted from averaged raw data. The amount of total protein phosphorylated was expressed as % phosphoprotein according to the manufacturer's (Meso Scale Discovery) instructions.
Levels of phospho-Akt Ser473 were determined in IgE sensitized and antigen stimulated cells after treatment without (positive control) or with 1, 5 and 25 μM test compound and normalized to levels of total Akt.

## CCCCCCCCCCCCN(C)CC(O)CS(=O)(=O)O (stereo not shown) [Compound 1c, 2-hydroxy-3-(N-methyldodecylammonio)propanesulfonate]
RBL-2H3 cells
  MTC (maximum tolerated concentration): 200 µM
  SI (safety index): 48.8
[1]; 1 μM
  Level of phospho-Akt Ser473: 119.7 ± 35.7 % positive control
[1]; 5 μM
  Level of phospho-Akt Ser473: 67.9 ± 17.3 % positive control
[1]; 25 μM
  Level of phospho-Akt Ser473: 17.4 ± 6.4 % positive control

## CCCCCCCCCCCCCCCCN(C)CC(O)CS(=O)(=O)O (stereo not shown) [Compound 1a, 2-hydroxy-3-(N-methylhexadecylammonio)propane-sulfonate]
RBL-2H3 cells
  MTC (maximum tolerated concentration): 75 µM
  SI (safety index): 10.9
[1]; 1 μM
  Level of phospho-Akt Ser473: 80.8 ± 17.9 % positive control
[1]; 5 μM
  Level of phospho-Akt Ser473: 62.4 ± 16.1 % positive control
[1]; 25 μM
  Level of phospho-Akt Ser473: 9.7 ± 4.9 % positive control
